# Test results published in patent US12616698B2, “Methods for reducing liver fat and for treating fatty liver disorders” (Corcept Therapeutics Incorporated, priority 2021, dated 2026).
# Tested on: C57BL/6J male mice
# Test: AMLN diet NASH mouse model, drug provided in the AMLN diet
# Type: in vivo
# Conditions: 60 mg/kg mifepristone in AMLN diet, 8 weeks, vs diet-alone control (FIG. 8A)
# Protocol: Two studies were conducted in C57BL/6J male mice (n=12 per group) maintained on a diet high in fat (40%), cholesterol (2%) and fructose (20%; referred to as the AMLN diet: see, e.g., Tolbol et al., World Journal of Gastroenterology, 24(2):179-194 (2018)) for 42 weeks before dosing with miricorilant was initiated. In the first study, all animals ate the AMLN diet, and received either placebo, 30 mg/kg miricorilant, or 60 mg/kg mifepristone once per day orally. […] All animals received the AMLN diet for 42 weeks prior to receiving their first dose of study drug or placebo. 4 weeks prior to receiving that first dose, a liver biopsy and histological examination of biopsy tissue was performed for each animal; 3 weeks prior to receiving that first dose, animals were randomized into three groups: control, miricorilant, or mifepristone. Only mice with fibrosis stage >=1 and steatosis score >=2 were allowed in the study and the groups were stratified according to liver col1a1 so that each study group had similar overall distributions of liver col1a1 among the mice. All animals continued on the study diet for the 3 weeks following randomization, at which time study drug or placebo administration began. All animals received their assigned drugs for 8 weeks (the 8 week in vivo study period). At 56 days (week 8) after initiation of drug administration, plasma ALT, AST, triglycerides, total cholesterol, and miricorilant levels were measured, and animals were sacrificed, liver necropsies were performed, liver histological ((NAFLD Activity Score, Fibrosis Stage, steatosis (scored using hematoxylin and eosin staining (HE)), col1a (scored using immunohistochemistry (IHC)) and Galectin-3 (IHC)) and liver biochemical measurements (including liver triglycerides and total cholesterol) were made, and liver and plasma samples were obtained for genetic ((e.g., RNA sequencing) and other analyses.
# Thus, in these studies, the mice were subjected to a liver biopsy approximately 4 weeks before initiation of dosing with miricorilant and only mice with confirmed fibrosis (fibrosis stage ≥1) and steatosis (score ≥2) were entered into the study. At the end of the dosing period, blood samples were collected for determination of plasma ALT, AST, triglycerides, total cholesterol, and miricorilant. Liver samples were collected for analysis of triglycerides, total cholesterol, hydroxyproline, and histopathology. Body weight and food consumption were monitored throughout the study.
# Type I collagen IHC staining Type I collagen (Southern Biotech, Cat. 1310-01) IHC were performed using standard procedures. Briefly, after antigen retrieval and blocking of endogenous peroxidase activity, slides were incubated with primary antibody. The primary antibody was detected using a polymeric HRP-linker antibody conjugate. Next, the primary antibody was visualized with DAB as chromogen. Finally, sections were counterstained in hematoxylin and cover-slipped.
# Liver Galectin-3 content Galectin-3 (Biolegend, Cat. #125402) IHC was performed using standard procedures. Briefly, after antigen retrieval and blocking of endogenous peroxidase activity, slides were incubated with primary antibody. The primary antibody was detected using a linker secondary antibody followed by amplification using a polymeric HRP-linker antibody conjugate. Next, the primary antibody was visualized with DAB as chromogen. Finally, sections were counterstained in hematoxylin and cover-slipped.
# Total liver col1a1 was evaluated from liver samples stained with anti-type I collagen (col1a1) (Southern Biotech, cat. 1310-01) at the end of the treatment period (typically using low power (20×) magnification). Galectin-3 content was evaluated from images of liver samples stained with anti-Galectin-3 (BioLegend, Cat. 125402) at the end of the treatment period (typically using low power (20×) magnification). Terminal relative (left) and total (right) liver type I Collagen (Col1a1) quantification was determined by morphometry. […]
smiles,measurement,value
"CC#C[C@]1(O)CC[C@H]2[C@@H]3CCC4=CC(=O)CCC4=C3[C@@H](c3ccc(N(C)C)cc3)C[C@@]21C [mifepristone, reference compound]",Liver weight at termination of the study,significantly increased
